# Laboratory results published in patent EP0442769A2 (priority 1990, dated 1991).
# Like-named read-outs stand apart in the source and are kept apart here.
# What was measured:
# Stability in haemolysate = format: in vitro ADME; set-up: key: + : stable.; *a: * : stabilité dans le sérum frais à 37°C au bout de 24h : on ne retrouve que 8 à 12%, 78% et 65% de la quantité de départ dans le sérum respectivement pour (a), (b) et (c).; *b: * : stabilité dans le sérum frais à 37°C au bout de 24h : on ne retrouve que 8 à 12%, 78% et 65% de la quantité de départ dans le sérum respectivement pour (a), (b) et (c).; *c: * : stabilité dans le sérum frais à 37°C au bout de 24h : on ne retrouve que 8 à 12%, 78% et 65% de la quantité de départ dans le sérum respectivement pour (a), (b) et (c)
# Source text: (§1) Ces composés ont été également testés pour leur absorption membranaire et stabilité érythrocitaire et plasmatique.
# GR chargés = test: Extracellular leak from loaded red blood cells, 24 h incubation; format: in vitro ADME
# Source text: as §1
# sites opioides de type µ = biological target: T1, sites opioides de type µ (Oryctolagus cuniculus, UniProt G1TAQ8); test: [3H]diprenorphine competition binding, crude membrane fraction of rabbit cerebellum; set-up: species or system lapin
# T1 construct: fraction membranaire brute obtenue à partir de tissu frais (cervelet de lapin, cervelet de cobaye); from tissue; host or cells: rabbit cerebellum (New Zealand rabbits), crude membrane fraction
# Protocol: (§2) Les animaux utilisés sont des lapins néo-zélandais d'environ 1500 g et des cobayes tricolores d'environ 300 g.
# (§3) La préparation utilisée est une fraction membranaire brute obtenue à partir de tissu frais (cervelet de lapin, cervelet de cobaye) par une méthode standard d'homogénéisation et de centrifugation différentielle. La suspension finale est en tampon tris-HCl (50 mM, pH 7,4) et contient environ 5 mg de protéine par ml.
# (§4) [15,16(n)-³H] diprenorphine à 25-30 CI/mmol (Amersham International plc, Amersham, Angleterre).
# (§5) Radioligand (0,3 pmol) de [³H] diprenorphine et fraction membranaire brute (0,25 mg de protéine) sont incubés pendant 1 heure à 25°C dans un volume final de 1,0 ml en tampon Tris-HCl (50 mM, pH 7,4) : • (i) en absence de toute drogue compétitrice , • (ii) en présence de 12 concentrations croissantes de la nouvelle drogue et, • (iii) en présence de 10 µmol/l de diprenorphine non radioactive.
# (§6) Le contenu de chaque tube est ensuite rapidement filtré (sous vide) sur disques de fibre de verre (Whatman GF/B) disposés sur un jeu de rampes de filtration Millipore modèle 1225. Les filtres sont rincés avec 2 x 3 ml de tampon froid (O-2°C) puis séchés sous une lampe IR pendant 15 minutes. La radioactivité de chaque filtre, dans 3 ml de cocktail Ready-sol MB (Beckman) est comptée avec un compteur à scintillation liquide Kontron modèle MR 300.
# (§7) A partir des paramètres mesurés, il est ensuite calculé les différentes constantes Kx pour les sites considérés.
# (§8) Ces valeurs ont été calculées à partir des valeurs mesurées des concentrations CI.50 de drogue inhibant de 50 % la liaison à l'équilibre de (3H) diprenorphine utilisée à la concentration fixe de 0,3 nM.
# Stability in fresh serum = format: in vitro ADME; set-up: key to Stabilité dans sérum frais 4°C / Stabilité dans sérum frais 37°C: + : stable.; *a: * : stabilité dans le sérum frais à 37°C au bout de 24h : on ne retrouve que 8 à 12%, 78% et 65% de la quantité de départ dans le sérum respectivement pour (a), (b) et (c).; *b: * : stabilité dans le sérum frais à 37°C au bout de 24h : on ne retrouve que 8 à 12%, 78% et 65% de la quantité de départ dans le sérum respectivement pour (a), (b) et (c).; *c: * : stabilité dans le sérum frais à 37°C au bout de 24h : on ne retrouve que 8 à 12%, 78% et 65% de la quantité de départ dans le sérum respectivement pour (a), (b) et (c); details: for Stabilité dans sérum frais 37°C / remaining at 24 h: * = fraction of starting quantity found after 24h, 37°C; for remaining at 24 h: read-out: Stabilité dans sérum frais 37°C
# Source text: as §1
# sites opioides de type k = biological target: T2, sites opioides de type k (Cavia porcellus, UniProt P41144); test: [3H]diprenorphine competition binding, crude membrane fraction of guinea pig cerebellum; set-up: species or system cobaye; details: guinea pig cerebellum membranes; for IC50: [3H]diprenorphine 0,3 nM, 1 h at 25°C, (n) in brackets, read-out: I50κ (concentration inhibitrice 50); for Ki: calculated from the measured CI.50, read-out: KIκ (constante de dissociation apparente du composé testé)
# T2 construct: fraction membranaire brute obtenue à partir de tissu frais (cervelet de lapin, cervelet de cobaye); from tissue; host or cells: guinea pig cerebellum (tricolour guinea pigs), crude membrane fraction
# Protocol: as §2, §3, §4, §5, §6, §7, §8
# membrane érythrocytaire = test: Membrane adsorption at haematocrit 45%; format: in vitro ADME
# Source text: as §1
# [1] = [3H]diprenorphine 0,3 nM, rabbit cerebellum membranes, 1 h at 25°C, (n) in brackets, read-out: I50µ (concentration inhibitrice 50)
# [2] = calculated from the measured CI.50, rabbit cerebellum membranes, read-out: KIµ (constante de dissociation apparente du composé testé)
Structure (SMILES),Stabilité dans hémolysat 4°C (Stability in haemolysate),Stabilité dans hémolysat 37°C (Stability in haemolysate),GR chargés : Incubation 24h Fuite extra-cellulaire 4°C (GR chargés),GR chargés : Incubation 24h Fuite extra-cellulaire 37°C (GR chargés),IC50 (sites opioides de type µ; [1]),Ki (sites opioides de type µ; [2]),Stabilité dans sérum frais 4°C (Stability in fresh serum),Stabilité dans sérum frais 37°C (Stability in fresh serum),IC50 (sites opioides de type k),Ki (sites opioides de type k),Adsorption membranaire à Hte 45% (membrane érythrocytaire),affinité apparente pour les sites opioïdes µ (sites opioides de type µ; result in words),remaining at 24 h (Stability in fresh serum),IC50 (sites opioides de type µ),Ki (sites opioides de type µ)
"C=CCN1CC[C@]23c4c5ccc(OS(=O)(=O)O)c4O[C@H]2C(=O)CC[C@@]3(OS(=O)(=O)O)[C@H]1C5 [naloxone-3,14-disulfate]",+,+,5%,50%,20800 nM,5200 nM,+,+,> 100000 nM,> 25000 nM,34%,,,,
C=CCN1CC[C@]23c4c5ccc(OP(=O)(O)OC)c4O[C@H]2C(=O)CC[C@@]3(O)[C@H]1C5 [naloxone-3-phosphate(OMe)],+,+,6%,40%,1200 nM,260 nM,+,+,,,10%,,,,
C=CCN1CC[C@]23c4c5ccc(OP(=O)(O)O)c4O[C@H]2C(=O)CC[C@@]3(O)[C@H]1C5 [naloxone-3-phosphate],+,+,1%,12%,3.5 ± 0.3 nM,0.9 nM,+,+,,,0%,activité légèrement plus élevée que la naloxone,,,
C=CCN1CC[C@]23c4c5ccc(OS(=O)(=O)O)c4O[C@H]2C(=O)CC[C@@]3(O)[C@H]1C5 [naloxone-3-sulfate],,,,,4300 nM,1070 nM,,,,,,,,,
C=CCN1CC[C@]23c4c5ccc(OP(=O)(O)OP(=O)(O)OP(=O)(O)O)c4O[C@H]2C(=O)CC[C@@]3(O)[C@H]1C5 [naloxone-3-triphopshate],+,+,0%,0%,21 ± 2 nM,5.2 nM,+,,106 ± 15 nM,27 nM,22%,,78%,,
"O=C1CC[C@@]2(O)[C@H]3Cc4ccc(O)c5c4[C@@]2(CCN3CC2CC2)[C@H]1O5 [naltrexone, reference compound]",,,,,,,,,,,,,,1.2 ± 0.2 nM,0.3 nM
"O=C1CC[C@@]2(OS(=O)(=O)O)[C@H]3Cc4ccc(OS(=O)(=O)O)c5c4[C@@]2(CCN3CC2CC2)[C@H]1O5 [naltrexone-3,14-disulfate]",+,+,15%,70%,7850 nM,1960 nM,+,+,39000 nM,9700 nM,40%,,,,
COP(=O)(O)Oc1ccc2c3c1O[C@H]1C(=O)CC[C@@]4(O)[C@@H](C2)N(CC2CC2)CC[C@]314 [naltrexone-3-phosphate(OMe)],+,+,5%,40%,130 ± 9 nM,33 nM,+,+,270 ± 35 nM,68 nM,10%,,,,
O=C1CC[C@@]2(O)[C@H]3Cc4ccc(OP(=O)(O)O)c5c4[C@@]2(CCN3CC2CC2)[C@H]1O5 [naltrexone-3-phosphate],+,+,1%,12%,22 ± 2 nM,5.6 nM,+,,30 ± 3 nM,7.5 nM,22%,,8 to 12%,,
O=C1CC[C@@]2(O)[C@H]3Cc4ccc(OS(=O)(=O)O)c5c4[C@@]2(CCN3CC2CC2)[C@H]1O5 [naltrexone-3-sulfate],,,,,1540 nM,385 nM,,,2200 nM,550 nM,,,,,
O=C1CC[C@@]2(O)[C@H]3Cc4ccc(OP(=O)(O)OP(=O)(O)OP(=O)(O)O)c5c4[C@@]2(CCN3CC2CC2)[C@H]1O5 [naltrexone-3-triphosphate],+,+,0%,0%,5.2 ± 0.4 nM,1.3 nM,+,,15 ± 1.4 nM,3.8 nM,22%,,65%,,
